Like-named read-outs stand apart in the source and are kept apart here.
Experiments:
[1] = Complexation of (1) with 166Dy and 166Ho; assay type: physicochemical; conditions: 166Dy/166Ho, within 40 mins at RT
Method: Radiolabelling with of (1) with ^166 Dy and ^166 Ho and the serum stability of the complex formed has been investigated. A typical procedure involves dissolving (1) (2.6 10^-4 M) in 1.0 M NaOH (150 μl) and then adding saline (669 μl). Then equal volume of ligand mixture and the ^166 Dy/^166 Ho in 0.2 M NaAc (pH to 4.5) are mixed. The complexation is monitored by ITLC-SG.

[2] = Radiolabelling of chelators with 64Cu and 67Cu; assay type: physicochemical; conditions: ligand:metal ratio 4:1, ITLC
Method: A typical procedure involved the dissolving Cu-67 20 μl of original stock in an acetate buffer (0.2 M; pH 4.5) to a total volume of 500 μl. To this solution was added 500 μl of the ligand (20 mg/ml) solution in acetate buffer. The mixture was then left to react at 37° C. for 20 minutes. ITLC confirmed the labelling was greater than >95%.

[3] = Serum stability of Copper-67 complexes; assay type: in vitro ADME
Method: The serum stability was determined for selected derivatives and typical procedure is as follows.
The ligand (1) was labelled with Cu-67 at a ligand:metal ratio of 4:1.

[4] = Serum stability of 99mTc complex of (1); assay type: in vitro ADME; conditions: first hour at 37° C., read-out: technetium lost from the chelator in serum
Method: A typical method of radiolabelling of the chelator was achieved by dissolving the chelator in a basic solution of saline. The pH was then adjusted to approx. 6 with HCl. Excess stannous chloride was added to the resultant solution followed by one equivalent volume of sodium ^99m TcO4 (10-50 mCi/ml). Final concentration of the chelator was approx. 1 mg/ml. The efficacy of labelling was determined by ITLC-SG. For each product only one main radiochemical species was observed. Each complex was diluted to 15 μCi/100 μl with saline. […] (See FIGS. 1A and 1B).

[5] = Biodistribution of 99mTc complexes in rats; assay type: in vivo, Australian Albino Wistar Rats; conditions: rats; for tissue uptake at 0.5 min / tissue uptake at 1 min / tissue uptake at 0.05 h / tissue uptake at 5 min / tissue uptake at 10 min: rat; for tissue uptake at 0.5 min: 30 sec
How it was run: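 Chelators were dissolved in basic saline, brought to about pH 6 with HCl, and reduced with excess stannous chloride before one equivalent volume of sodium 99mTcO4 (10-50 mCi/ml) was added, giving roughly 1 mg/ml chelator. Labelling efficacy was checked by ITLC-SG. Complexes were diluted in saline to 15 μCi/100 μl for rat biodistribution, with tissue uptake expressed as %ID/g.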

[6] = Serum stability of 166Dy/166Ho complex of (1); assay type: in vitro ADME; conditions: human serum, 37° C.
Method: The radiolabelling (1) is then incubated in human serum at 37° C. At various time intervals the aliquots are separated and monitored for UV absorbance and radioactivity. The data illustrated in FIG. 31 show the complex is stable for >46 hrs.

[7] = blood, read-out: biodistribution blood
[8] = bone, read-out: biodistribution bone
[9] = brain, read-out: biodistribution brain
[10] = eyes, read-out: biodistribution eyes
[11] = heart, read-out: biodistribution heart
[12] = kidneys, read-out: biodistribution kidneys
[13] = liver, read-out: biodistribution liver
[14] = lungs, read-out: biodistribution lungs
[15] = muscle, read-out: biodistribution muscle
[16] = pancreas, read-out: biodistribution pancreas
[17] = skin, read-out: biodistribution skin
[18] = spleen, read-out: biodistribution spleen
[19] = stomach, read-out: biodistribution stomach
[20] = tail, read-out: biodistribution tail
[21] = thymus, read-out: biodistribution thymus
[22] = thyroid, read-out: biodistribution thyroid
[23] = total git, read-out: biodistribution tot GIT

Q: What does the source list for `O=C(O)CN(CCN(CC(=O)O)CC(=O)Nc1ccccc1O)CC(=O)Nc1ccccc1O` [Compound 1]?
A: complexation [1]: > 99%; efficiency of labelling with Cu-67 [2]: > 95%; further loss in serum ([3]; Cu-67, after 24 hours): no further loss; degraded at 4 h ([3]; serum, Cu-67, initial 4 hours, read-out: loss in serum): 4%; degraded at 1 h [4]: ≤ 15%; tissue uptake at 0.5 min [5, 7]: 1.93 %ID/g; tissue uptake at 1 min [5, 7]: 1.71 %ID/g; tissue uptake at 0.05 h ([5]; blood, 3 minutes, selected data, read-out: Blood): 1.16 %ID/g; tissue uptake at 5 min [5, 7]: 0.83 %ID/g; tissue uptake at 10 min [5, 7]: 0.71 %ID/g; tissue uptake at 0.5 min [5, 8]: 0.31 %ID/g; tissue uptake at 1 min [5, 8]: 0.32 %ID/g; tissue uptake at 0.05 h ([5]; bone, 3 min, read-out: biodistribution bone): 0.26 %ID/g; tissue uptake at 5 min [5, 8]: 0.25 %ID/g; tissue uptake at 10 min [5, 8]: 0.19 %ID/g; tissue uptake at 0.5 min [5, 9]: 0.14 %ID/g; tissue uptake at 1 min [5, 9]: 0.09 %ID/g; tissue uptake at 0.05 h ([5]; brain, 3 min, read-out: biodistribution brain): 0.06 %ID/g; tissue uptake at 5 min [5, 9]: 0.05 %ID/g; tissue uptake at 10 min [5, 9]: 0.04 %ID/g; tissue uptake at 0.5 min [5, 10]: 0.19 %ID/g; tissue uptake at 1 min [5, 10]: 0.17 %ID/g; tissue uptake at 0.05 h ([5]; eyes, 3 min, read-out: biodistribution eyes): 0.18 %ID/g; tissue uptake at 5 min [5, 10]: 0.17 %ID/g; tissue uptake at 10 min [5, 10]: 0.13 %ID/g; tissue uptake at 0.5 min [5, 11]: 0.75 %ID/g; tissue uptake at 1 min [5, 11]: 0.67 %ID/g; tissue uptake at 0.05 h ([5]; heart, 3 min, read-out: biodistribution heart): 0.46 %ID/g; tissue uptake at 5 min [5, 11]: 0.33 %ID/g; tissue uptake at 10 min [5, 11]: 0.27 %ID/g; tissue uptake at 0.05 h ([5]; kidney, 3 minutes, selected data, read-out: Kidney): 4.12 %ID/g; tissue uptake at 0.5 min [5, 12]: 6.73 %ID/g; tissue uptake at 1 min [5, 12]: 6.55 %ID/g; tissue uptake at 0.05 h ([5]; kidneys, 3 min, read-out: biodistribution kidneys): 4.12 %ID/g; tissue uptake at 5 min [5, 12]: 2.87 %ID/g; tissue uptake at 10 min [5, 12]: 2.72 %ID/g; tissue uptake at 0.5 min [5, 13]: 1.73 %ID/g; tissue uptake at 1 min [5, 13]: 2.01 %ID/g; tissue uptake at 0.05 h ([5]; liver, 3 minutes, selected data, read-out: Liver): 1.54 %ID/g; tissue uptake at 5 min [5, 13]: 1.34 %ID/g; tissue uptake at 10 min [5, 13]: 0.76 %ID/g; tissue uptake at 0.5 min [5, 14]: 1.15 %ID/g; tissue uptake at 1 min [5, 14]: 1.13 %ID/g; tissue uptake at 0.05 h ([5]; lungs, 3 min, read-out: biodistribution lungs): 0.8 %ID/g; tissue uptake at 5 min [5, 14]: 0.54 %ID/g; tissue uptake at 10 min [5, 14]: 0.46 %ID/g; tissue uptake at 0.5 min [5, 15]: 0.28 %ID/g; tissue uptake at 1 min [5, 15]: 0.27 %ID/g; tissue uptake at 0.05 h ([5]; muscle, 3 min, read-out: biodistribution muscle): 0.26 %ID/g; tissue uptake at 5 min [5, 15]: 0.27 %ID/g; tissue uptake at 10 min [5, 15]: 0.15 %ID/g; tissue uptake at 0.5 min [5, 16]: 0.49 %ID/g; tissue uptake at 1 min [5, 16]: 0.51 %ID/g; tissue uptake at 0.05 h ([5]; pancreas, 3 min, read-out: biodistribution pancreas): 0.44 %ID/g; tissue uptake at 5 min [5, 16]: 0.44 %ID/g; tissue uptake at 10 min [5, 16]: 0.3 %ID/g; tissue uptake at 0.5 min [5, 17]: 0.37 %ID/g; tissue uptake at 1 min [5, 17]: 0.43 %ID/g; tissue uptake at 0.05 h ([5]; skin, 3 min, read-out: biodistribution skin): 0.49 %ID/g; tissue uptake at 5 min [5, 17]: 0.53 %ID/g; tissue uptake at 10 min [5, 17]: 0.4 %ID/g; tissue uptake at 0.5 min [5, 18]: 0.53 %ID/g; tissue uptake at 1 min [5, 18]: 0.42 %ID/g; tissue uptake at 0.05 h ([5]; spleen, 3 min, read-out: biodistribution spleen): 0.26 %ID/g; tissue uptake at 5 min [5, 18]: 0.2 %ID/g; tissue uptake at 10 min [5, 18]: 0.15 %ID/g; tissue uptake at 0.5 min [5, 19]: 0.14 %ID/g; tissue uptake at 1 min [5, 19]: 0.28 %ID/g; tissue uptake at 0.05 h ([5]; stomach, 3 min, read-out: biodistribution stomach): 0.32 %ID/g; tissue uptake at 5 min [5, 19]: 0.11 %ID/g; tissue uptake at 10 min [5, 19]: 0.12 %ID/g; tissue uptake at 0.5 min [5, 20]: 0.68 %ID/g; tissue uptake at 1 min [5, 20]: 0.56 %ID/g; tissue uptake at 0.05 h ([5]; tail, 3 min, read-out: biodistribution tail): 0.8 %ID/g; tissue uptake at 5 min [5, 20]: 0.73 %ID/g; tissue uptake at 10 min [5, 20]: 0.83 %ID/g; tissue uptake at 0.5 min [5, 21]: 0.38 %ID/g; tissue uptake at 1 min [5, 21]: 0.35 %ID/g; tissue uptake at 0.05 h ([5]; thymus, 3 min, read-out: biodistribution thymus): 0.27 %ID/g; tissue uptake at 5 min [5, 21]: 0.19 %ID/g; tissue uptake at 10 min [5, 21]: 0.14 %ID/g; tissue uptake at 0.5 min [5, 22]: 1.42 %ID/g; tissue uptake at 1 min [5, 22]: 1.15 %ID/g; tissue uptake at 0.05 h ([5]; thyroid, 3 min, read-out: biodistribution thyroid): 1.17 %ID/g; tissue uptake at 5 min [5, 22]: 0.59 %ID/g; tissue uptake at 10 min [5, 22]: 0.4 %ID/g; tissue uptake at 0.5 min [5, 23]: 0.27 %ID/g; tissue uptake at 1 min [5, 23]: 0.34 %ID/g; tissue uptake at 0.05 h ([5]; total git, 3 min, read-out: biodistribution tot GIT): 0.59 %ID/g; tissue uptake at 5 min [5, 23]: 0.79 %ID/g; tissue uptake at 10 min [5, 23]: 1.22 %ID/g; biodistribution blood ([5]; 3 min): 1.16 % Injected dose per gram; biodistribution liver ([5]; 3 min): 1.54 % Injected dose per gram; serum stability (complex is stable for) [6]: > 46 h
